| SMILES | melting point [°C] |
| --- | --- |
| O=C(O)C(=O)CC(=O)c1cc(Cc2ccccc2)cc2c1OCC(O)CO2 (racemic) | 182 to 183 |
| COc1cc(OCc2ccccc2)cc(C(=O)CC(=O)C(=O)O)c1 | 101 to 102 |
| O=C(O)C(=O)CC(=O)c1cc(Cc2ccccc2)cc2c1OCCO2 | 154 to 155 |
| COCCOc1c(OC)cc(Cc2ccccc2)cc1C(=O)CC(=O)C(=O)O | 83 to 85 |
| O=C(O)C(=O)CC(=O)c1cccc2c1ccn2Cc1ccc(F)cc1 | 156 to 157 |
| O=C(O)C(=O)CC(=O)c1ccc2ccn(Cc3ccc(F)cc3)c2c1 | 173 to 174 |

The next lines start with the values.

| melting point [°C] | SMILES |
| --- | --- |
| 157 to 158 | O=C(O)C(=O)CC(=O)c1cccc(OCc2ccc(F)cc2)c1 |
| 99 to 100 | COc1cc(Cc2ccccc2)cc(C(=O)CC(=O)C(=O)O)c1OCCSC |
| 136 to 138 | O=C(O)C(=O)CC(=O)c1ccccc1OCc1ccccc1 |
| 75 to 76 | C=CCCCc1cc(OC)c(OC)c(C(=O)CC(=O)C(=O)O)c1 |
| 181 to 182 | O=C(O)C(=O)CC(=O)c1cccc(OCc2ccc(F)c(F)c2)c1 |
| 101 to 103 | COc1cc(CC2CC2)cc(C(=O)CC(=O)C(=O)O)c1OC |
